Patent publication US11589586B2, “Pesticidal and parasiticidal pyrazole-isoxazoline compounds” (BOEHRINGER INGELHEIM ANIMAL HEALTH USA INC., priority 2017, dated 2023)

Legend:
[1] = tested on: adult Ctenocephalides felis; experiment: Efficacy against fleas when ingested (treated bovine blood membrane feeding); format: in vivo; settings: adult Ctenocephalides felis fed on treated bovine blood, 72 hour assessment, compared with untreated controls
From the text: Method B: Efficacy of Compounds Against Fleas when Ingested
A cylindrical test container was filled with 10 adult Ctenocephalides felis. A cylindrical well was closed on one end with a self-sealing flexible film and placed on top of the test container in such a position that the fleas could pierce the film and feed on the contents of the cylinder. The test compound solution was then pipetted into bovine blood and added to the well. The container part with the Ctenocephalides felis was held at 20-22° C. and 40-60% relative humidity while the well part containing the treated blood was held at 37° C. and 40-60% relative humidity. Assessment was performed at 72 hours after application in comparison with untreated controls.

A. aegypti L1 larvae = experiment: Efficacy against A. aegypti mosquitos (L1 larvae motility, dose response); format: in vivo; settings: Aedes aegypti; ten A. aegypti L1 larvae, diluted LB media, 25° C., 48h; read-out: EC50 (motility of larvae compared to DMSO control wells)
Method: Method A: Efficacy of Compounds Against A. aegypti Mosquitos Compounds were formulated in 100% DMSO are added to microtiter plates containing 180 μl of diluted LB media (Luria-Bertani media is a combination of tryptone, salt and yeast extract). Ten A. aegypti L1 larvae are added and the plates are incubated at 25° C. for 48h. The efficacy of a compound is determined based on the motility of the larvae as compared to average motility of control wells containing DMSO only. A dose response assay was conducted to determine an EC50 value.

## Cc1cc(C2=NOC(c3cc(C(F)(F)F)nn3C)(C(F)(F)F)C2)ccc1C(=O)NCC(=O)NCC(F)(F)F (centres unmarked) [Compound 2-1, 2-[(2-Methyl-4-[5-[1-methyl-3-(trifluoromethyl)-1H-pyrazol-5-yl]-5-(trifluoromethyl)-4,5-dihydro-1,2-oxazol-3-yl]phenyl)formamido]-N-(2,2,2-trifluoroethyl)acetamide]
[1]
  LC50: < 20 µM
A. aegypti L1 larvae
  EC50: < 10 µM

## Cn1nc(C(F)(F)F)cc1C1(C(F)(F)F)CC(c2ccc(C(=O)NCC(=O)NCC(F)(F)F)c3ccccc23)=NO1 (centres unmarked) [Compound 2-2, 2-[(4-[5-[1-methyl-3-(trifluoromethyl)-1H-pyrazol-5-yl]-5-(trifluoromethyl)-4,5-dihydro-1,2-oxazol-3-yl]naphthalen-1-yl)formamido]-N-(2,2,2-trifluoroethyl)acetamide]
[1]
  LC50: < 20 µM
A. aegypti L1 larvae
  EC50: < 10 µM

## Cn1nc(C(F)(F)F)cc1C1(C(F)(F)F)CC(c2ccc3c(c2)COC32CN(C(=O)CS(C)(=O)=O)C2)=NO1 (centres unmarked) [Compound 2-3, 1-(5′-(5-(1-methyl-3-(trifluoromethyl)-1H-pyrazol-5-yl)-5-(trifluoromethyl)-4,5-dihydroisoxazol-3-yl)-3′H-spiro[azetidine-3,1′-isobenzofuran]-1-yl)-2-(methylsulfonyl)ethan-1-one]
[1]
  LC50: < 20 µM
A. aegypti L1 larvae
  EC50: < 10 µM

## CSCCNC(=O)c1ccc(C2=NOC(c3cc(C(F)(F)F)nn3C)(C(F)(F)F)C2)cc1C (centres unmarked) [Compound 2-4, 2-methyl-4-[5-[1-methyl-3-(trifluoromethyl)-1H-pyrazol-5-yl]-5-(trifluoromethyl)-4,5-dihydro-1,2-oxazol-3-yl]-N-[2-(methylsulfanyl)ethyl]benzamide]
[1]
  LC50: < 20 µM
A. aegypti L1 larvae
  EC50: < 10 µM

## Cc1cc(C2=NOC(c3cc(C(F)(F)F)nn3C)(C(F)(F)F)C2)ccc1C(=O)NCCS(C)(=O)=O (centres unmarked) [Compound 2-5, N-(2-methanesulfonylethyl)-2-methyl-4-[5-[1-methyl-3-(trifluoromethyl)-1H-pyrazol-5-yl]-5-(trifluoromethyl)-4,5-dihydro-1,2-oxazol-3-yl]benzamide]
[1]
  LC50: < 20 µM
A. aegypti L1 larvae
  EC50: < 10 µM

## Cc1cc(C2=NOC(c3cc(C(F)(F)F)nn3C)(C(F)(F)F)C2)ccc1C(=O)NCC(F)(F)F (centres unmarked) [Compound 2-6, 2-methyl-4-[5-[1-methyl-3-(trifluoromethyl)-1H-pyrazol-5-yl]-5-(trifluoromethyl)-4,5-dihydro-1,2-oxazol-3-yl]-N-(2,2,2-trifluoroethyl)benzamide]
[1]
  LC50: < 50 µM
A. aegypti L1 larvae
  EC50: < 10 µM

## Cc1cc(C2=NOC(c3cc(C(F)(F)F)nn3C)(C(F)(F)F)C2)ccc1C(=O)NC1CC1 (centres unmarked) [Compound 2-7, N-cyclopropyl-2-methyl-4-[5-[1-methyl-3-(trifluoromethyl)-1H-pyrazol-5-yl]-5-(trifluoromethyl)-4,5-dihydro-1,2-oxazol-3-yl]benzamide]
[1]
  LC50: < 50 µM
A. aegypti L1 larvae
  EC50: < 10 µM

## C=CCNC(=O)c1ccc(C2=NOC(c3cc(C(F)(F)F)nn3C)(C(F)(F)F)C2)cc1C (centres unmarked) [Compound 2-8]
A. aegypti L1 larvae
  EC50: < 20 µM

## Cn1nc(C(F)(F)F)cc1C1(C(F)(F)F)CC(c2ccc(C(=O)NCC(=O)NCC(F)(F)F)cc2)=NO1 (centres unmarked) [Compound 2-9, 2-[(4-[5-[1-Methyl-3-(trifluoromethyl)-1H-pyrazol-5-yl]-5-(trifluoromethyl)-4,5-dihydro-1,2-oxazol-3-yl]phenyl)formamido]-N-(2,2,2-trifluoroethyl) acetamide]
A. aegypti L1 larvae
  EC50: < 20 µM

## Cn1nc(C(F)(F)F)cc1C1(C(F)(F)F)CC(c2ccc(Cl)c(C(=O)NC3CC3)c2)=NO1 (centres unmarked) [Compound 2-10, 2-Chloro-N-cyclopropyl-5-[5-[1-methyl-3-(trifluoromethyl)-1H-pyrazol-5-yl]-5-(trifluoromethyl)-4,5-dihydro-1,2-oxazol-3-yl]benzamide]
A. aegypti L1 larvae
  EC50: < 20 µM

## Cc1cc(C2=NOC(c3cn(C)nc3C(F)(F)F)(C(F)(F)F)C2)ccc1C(=O)NCC(=O)NCC(F)(F)F (centres unmarked) [Compound 2-11, 2-[(2-methyl-4-[5-[1-methyl-3-(trifluoromethyl)-1H-pyrazol-4-yl]-5-(trifluoromethyl)-4,5-dihydro-1,2-oxazol-3-yl]phenyl)formamido]-N-(2,2,2-trifluoroethyl)acetamide]
A. aegypti L1 larvae
  EC50: < 20 µM

## COCn1nc(C(F)(F)F)cc1C1(C(F)(F)F)CC(c2ccc(C(=O)NCC(=O)NCC(F)(F)F)c(C)c2)=NO1 (centres unmarked) [Compound 2-30, 2-[(4-[5-[1-(methoxymethyl)-3-(trifluoromethyl)-1H-pyrazol-5-yl]-5-(trifluoromethyl)-4,5-dihydro-1,2-oxazol-3-yl]-2-methylphenyl)formamido]-N-(2,2,2-trifluoroethyl)acetamide]
A. aegypti L1 larvae
  EC50: < 10 µM

## COCn1nc(C2(C(F)(F)F)CC(c3ccc(C(=O)NCC(=O)NCC(F)(F)F)c(C)c3)=NO2)cc1C(F)(F)F (centres unmarked) [Compound 2-31, 4-(5-(1-(methoxymethyl)-5-(trifluoromethyl)-1H-pyrazol-3-yl)-5-(trifluoromethyl)-4,5-dihydroisoxazol-3-yl)-2-methyl-N-(2-oxo-2-(2,2,2-trifluoroethylamino)ethyl)benzamide]
A. aegypti L1 larvae
  EC50: < 10 µM
